The compounds below were run against G12C K-Ras4B (1-169) (Homo sapiens (Human), UniProt P01116, G12C) (assay: Test of compounds on whether to bind to KRASG12C (LC-MS compound binding rate)). Conditions: final compound concentration of 2 μM, 1 μM protein, 25° C. for 2 hours.
How it was run: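 K-Ras4B (1-169) WT and G12C (1 μM each, mixed) in 1×TBS, 0.1 mM TCEP incubated with compound (final 2 μM) 2 h at 25° C; quenched with 0.2% formic acid. Intact-protein LC-MS (ESI+, deconvoluted); binding rate = adduct signal/(adduct + unbound signal), giving selectivity over WT.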

Structure (SMILES) | binding rate for G12C K-Ras4B (1-169)
C/C=C/C(=O)N1CC(NC(=O)c2c(C)nc(CNc3n[nH]c4cc(Cl)c(C(C)(C)C)cc34)n2C(C)C)C1 [Example 81, (E)-N-(1-(but-2-enoyl)azetidin-3-yl)-2-(((5-(tert-butyl)-6-chloro-1H-indazol-3-yl)amino)methyl)-1-isopropyl-4-methyl-1H-imidazole-5-carboxamide] | E (a binding rate of less than 20% is rated “E.”)
C=CC(=O)N1C[C@@H](CF)[C@@H](NC(=O)c2c(C)nc(CNc3n[nH]c4cc(Cl)c(C(C)(C)C)cc34)n2C)C1 [Example 66, N-((3R,4R)-1-acryloyl-4-(fluoromethyl)pyrrolidin-3-yl)-2-(((5-(tert-butyl)-6-chloro-1H-indazol-3-yl)amino)methyl)-1,4-dimethyl-1H-imidazole-5-carboxamide] | A (a binding rate of 80% or more is rated “A,”)
Cc1nc(CNc2n[nH]c3cc(Cl)c(C(C)(C)C)cc23)n(C(C)C)c1C(=O)NC1CN(C(=O)/C=C/CN2CCCCC2)C1 [Example 79, (E)-2-(((5-(tert-butyl)-6-chloro-1H-indazol-3-yl)amino)methyl)-1-isopropyl-4-methyl-N-(1-(4-(piperidin-1-yl)but-2-enoyl)azetidin-3-yl)-1H-imidazole-5-carboxamide] | E (a binding rate of less than 20% is rated “E.”)
C=CC(=O)N1CC(NC(=O)c2c(Cl)nc(CNc3n[nH]c4cc(Cl)c(C(C)(C)C)cc34)n2[C@@H]2CCN(CC(F)F)C2)C1 [Example 113, (R)—N-(1-acryloylazetidin-3-yl)-2-(((5-(tert-butyl)-6-chloro-1H-indazol-3-yl)amino)methyl)-4-chloro-1-(1-(2,2-difluoroethyl)pyrrolidin-3-yl)-1H-imidazole-5-carboxamide] | A (a binding rate of 80% or more is rated “A,”)
C=CC(=O)N1CC(NC(=O)c2c(C(F)F)nc(CNc3n[nH]c4cc(Cl)c(C(C)(C)C)cc34)n2C2CCN(CC)C2)C1 (centres unmarked) [Example 92, N-(1-acryloylazetidin-3-yl)-2-(((5-(tert-butyl)-6-chloro-1H-indazol-3-yl)amino)methyl)-4-(difluoromethyl)-1-(1-ethylpyrrolidin-3-yl)-1H-imidazole-5-carboxamide] | B (a binding rate of 60% or more and less than 80% is rated “B,”)
C=CC(=O)N1CC(NC(=O)c2oc(CNc3n[nH]c4cc(Cl)c(C(C)(C)C)cc34)nc2C)C1 [Example 11, N-(1-acryloylazetidin-3-yl)-2-(((5-(tert-butyl)-6-chloro-1H-indazol-3-yl)amino)methyl)-4-methyloxazole-5-carboxamide] | B (a binding rate of 60% or more and less than 80% is rated “B,”)
C=CC(=O)N1CC(NC(=O)c2c(Cl)nc(CNc3n[nH]c4cc(Cl)c(C(C)(C)C)cc34)n2-c2ccccn2)C1 [Example 94, N-(1-acryloylazetidin-3-yl)-2-(((5-(tert-butyl)-6-chloro-1H-indazol-3-yl)amino)methyl)-4-chloro-1-(pyridin-2-yl)-1H-imidazole-5-carboxamide] | B (a binding rate of 60% or more and less than 80% is rated “B,”)
C=CC(=O)N1CC(NC(=O)c2c(C)nc(CNc3n[nH]c4cc(Cl)c(C(C)(C)C)cc34)n2CC)C1 [Example 12, N-(1-acryloylazetidin-3-yl)-2-(((5-(tert-butyl)-6-chloro-1H-indazol-3-yl)amino)methyl)-1-ethyl-4-methyl-1H-imidazole-5-carboxamide] | B (a binding rate of 60% or more and less than 80% is rated “B,”)
C=CC(=O)N1CC[C@@H](NC(=O)c2c(F)nc(CNc3n[nH]c4cc(Cl)c(C(C)(C)C)cc34)n2C)C1 [Example 72, (R)—N-(1-acryloylpyrrolidin-3-yl)-2-(((5-(tert-butyl)-6-chloro-1H-indazol-3-yl)amino)methyl)-4-fluoro-1-methyl-1H-imidazole-5-carboxamide] | B (a binding rate of 60% or more and less than 80% is rated “B,”)
C=CC(=O)N1CC(NC(=O)c2c(C)nc(CNc3n[nH]c4ccc(C(C)(C)C)cc34)n2C(C)C)C1 [Example 42, N-(1-acryloylazetidin-3-yl)-2-(((5-(tert-butyl)-1H-indazol-3-yl)amino)methyl)-1-isopropyl-4-methyl-1H-imidazole-5-carboxamide] | B (a binding rate of 60% or more and less than 80% is rated “B,”)
C=CC(=O)N1CC(NC(=O)c2c(Cl)nc(CNc3n[nH]c4cc(Cl)c(C(=C)C(F)(F)F)cc34)n2C(C)C)C1 [Example 43, N-(1-acryloylazetidin-3-yl)-4-chloro-2-(((6-chloro-5-(3,3,3-trifluoroprop-1-en-2-yl)-1H-indazol-3-yl)amino)methyl)-1-isopropyl-1H-imidazole-5-carboxamide] | C (a binding rate of 40% or more and less than 60% is rated “C,”)
C=CC(=O)N1CCC(NC(=O)c2c(C)nc(CNc3n[nH]c4cc(Cl)c(C(C)(C)C)cc34)n2C)C1 (centres unmarked) [Example 48, N-(1-acryloylpyrrolidin-3-yl)-2-(((5-(tert-butyl)-6-chloro-1H-indazol-3-yl)amino)methyl)-1,4-dimethyl-1H-imidazole-5-carboxamide] | B (a binding rate of 60% or more and less than 80% is rated “B,”)
C=CC(=O)N1CC(NC(=O)c2c(C)nc(CNc3n[nH]c4cc(Cl)c(C(C)(C)C)cc34)n2C2CC2)C1 [Example 23, N-(1-acryloylazetidin-3-yl)-2-(((5-(tert-butyl)-6-chloro-1H-indazol-3-yl)amino)methyl)-1-cyclopropyl-4-methyl-1H-imidazole-5-carboxamide] | A (a binding rate of 80% or more is rated “A,”)
C=CC(=O)N1C[C@@H](C)[C@@H](NC(=O)c2c(F)nc(CNc3n[nH]c4cc(Cl)c(C(C)(C)C)cc34)n2C)C1 [Example 74, N-((3R,4R)-1-acryloyl-4-methylpyrrolidin-3-yl)-2-(((5-(tert-butyl)-6-chloro-1H-indazol-3-yl)amino)methyl)-4-fluoro-1-methyl-1H-imidazole-5-carboxamide] | A (a binding rate of 80% or more is rated “A,”)
Cc1nc(CNc2n[nH]c3cc(Cl)c(C(C)(C)C)cc23)n(C)c1C(=O)NC1CN(C(=O)/C=C/CN(C)C)C1 [Example 80, (E)-2-(((5-(tert-butyl)-6-chloro-1H-indazol-3-yl)amino)methyl)-N-(1-(4-(dimethylamino)but-2-enoyl)azetidin-3-yl)-1,4-dimethyl-1H-imidazole-5-carboxamide] | C (a binding rate of 40% or more and less than 60% is rated “C,”)
C=CC(=O)N1CC(NC(=O)c2c(Br)nc(CNc3n[nH]c4cc(Cl)c(C(C)(C)C)cc34)n2C)C1 [Example 27, N-(1-acryloylazetidin-3-yl)-4-bromo-2-(((5-(tert-butyl)-6-chloro-1H-indazol-3-yl)amino)methyl)-1-methyl-1H-imidazole-5-carboxamide] | A (a binding rate of 80% or more is rated “A,”)
C=CC(=O)N1CC(NC(=O)c2cnc(CNc3n[nH]c4cc(Cl)c(C(C)(C)C)nc34)n2C)C1 [Example 40, N-(1-acryloylazetidin-3-yl)-2-(((5-(tert-butyl)-6-chloro-1H-pyrazolo[4,3-b]pyridin-3-yl)amino)methyl)-1-methyl-1H-imidazole-5-carboxamide] | A (a binding rate of 80% or more is rated “A,”)
C=CC(=O)N1CC(NC(=O)c2c(I)nc(CNc3n[nH]c4cc(Cl)c(C(C)(C)C)cc34)n2C)C1 [Example 26, N-(1-acryloylazetidin-3-yl)-2-(((5-(tert-butyl)-6-chloro-1H-indazol-3-yl)amino)methyl)-4-iodo-1-methyl-1H-imidazole-5-carboxamide] | A (a binding rate of 80% or more is rated “A,”)
C=CC(=O)N1C[C@@H](F)[C@@H](NC(=O)c2c(C)nc(CNc3n[nH]c4cc(Cl)c(C(C)(C)C)cc34)n2C)C1 [Example 57, N-((3S,4R)-1-acryloyl-4-fluoropyrrolidin-3-yl)-2-(((5-(tert-butyl)-6-chloro-1H-indazol-3-yl)amino)methyl)-1,4-dimethyl-1H-imidazole-5-carboxamide] | C (a binding rate of 40% or more and less than 60% is rated “C,”)
[2H]C([2H])(Nc1n[nH]c2cc(Cl)c(C(C)(C)C)cc12)c1nc(C(F)F)c(C(=O)NC2CN(C(=O)C=C)C2)n1C(C)C [Example 36, N-(1-acryloylazetidin-3-yl)-2-(((5-(tert-butyl)-6-chloro-1H-indazol-3-yl)amino)methyl-d2)-4-(difluoromethyl)-1-isopropyl-1H-imidazole-5-carboxamide] | B (a binding rate of 60% or more and less than 80% is rated “B,”)
C=CC(=O)N1CC(NC(=O)c2cnc(CNc3n[nH]c4cc(Cl)c(C=C)cc34)n2C)C1 [Example 38, N-(1-acryloylazetidin-3-yl)-2-(((6-chloro-5-vinyl 1H-indazol-3-yl)amino)methyl)-1-methyl-1H-imidazole-5-carboxamide] | C (a binding rate of 40% or more and less than 60% is rated “C,”)
C=CC(=O)N1CC(NC(=O)c2c(C)nc(CNc3n[nH]c4cc(C)c(C(C)(C)C)cc34)n2C)C1 [Example 41, N-(1-acryloylazetidin-3-yl)-2-(((5-(tert-butyl)-6-methyl-1H-indazol-3-yl)amino)methyl)-1,4-dimethyl-1H-imidazole-5-carboxamide] | A (a binding rate of 80% or more is rated “A,”)
COC/C=C/C(=O)N1CC(NC(=O)c2c(C)nc(CNc3n[nH]c4cc(Cl)c(C(C)(C)C)cc34)n2C(C)C)C1 [Example 85, (E)-2-(((5-(tert-butyl)-6-chloro-1H-indazol-3-yl)amino)methyl)-1-isopropyl-N-(1-(4-methoxybut-2-enoyl)azetidin-3-yl)-4-methyl-1H-imidazole-5-carboxamide] | C (a binding rate of 40% or more and less than 60% is rated “C,”)

Source: US12065430B2, “Indazole compound or salt thereof” (TAIHO PHARMACEUTICAL CO., LTD., priority 2018, dated 2024)
